Measured values reported in ChEMBL document CHEMBL1129537, “The squalestatins: inhibitors of squalene synthase. Enzyme inhibitory activities and in vivo evaluation of C3-modified analogues” (J Med Chem, 1996).

Experiments:
Squalene synthase = biological target: T1, Squalene synthase (Rattus norvegicus, UniProt Q02769); experiment: In vitro inhibitory activity against Squalene synthase from rats
T1 sequence (Q02769 whole entry): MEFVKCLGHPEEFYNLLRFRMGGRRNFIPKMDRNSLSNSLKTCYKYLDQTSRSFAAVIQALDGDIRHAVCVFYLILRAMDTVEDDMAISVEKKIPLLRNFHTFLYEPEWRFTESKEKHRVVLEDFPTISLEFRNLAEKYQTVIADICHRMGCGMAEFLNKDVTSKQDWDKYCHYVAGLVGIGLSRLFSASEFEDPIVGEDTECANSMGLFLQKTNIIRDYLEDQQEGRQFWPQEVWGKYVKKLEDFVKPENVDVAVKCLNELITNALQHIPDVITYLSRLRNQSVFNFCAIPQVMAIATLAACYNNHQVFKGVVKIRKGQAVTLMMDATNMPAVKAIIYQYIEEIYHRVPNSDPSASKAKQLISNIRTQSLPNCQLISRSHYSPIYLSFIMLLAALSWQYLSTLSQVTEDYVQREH

[1] = Effect on % of cholesterol reduction measured on serum cholesterol level in marmosets after single iv dose 16.7 mg/kg on day 3; format: functional, Callitrichinae
[2] = Effect on % of cholesterol reduction measured on serum cholesterol level in marmosets after single iv dose 50 mg/kg on day 3; format: functional, Callitrichinae
[3] = Effect on % of cholesterol reduction measured on serum cholesterol level in marmosets after single iv dose 10 mg/kg on day 2; format: functional, Callitrichinae
[4] = Effect on % of cholesterol reduction measured on serum cholesterol level in marmosets after single iv dose 10 mg/kg on day 3; format: functional, Callitrichinae
[5] = Effect on % of cholesterol reduction measured on serum cholesterol level in marmosets after single iv dose 30 mg/kg on day 7; format: functional, Callitrichinae
[6] = Effect on % of cholesterol reduction measured on serum cholesterol level in marmosets after single iv dose 50 mg/kg on day 2; format: functional, Callitrichinae
[7] = Effect on % of cholesterol reduction measured on serum cholesterol level in marmosets after single iv dose 30 mg/kg on day 3; format: functional, Callitrichinae
[8] = Effect on % of cholesterol reduction measured on serum cholesterol level in marmosets after single iv dose 30 mg/kg on day 2; format: functional, Callitrichinae
[9] = Effect on % of cholesterol reduction measured on serum cholesterol level in marmosets after single iv dose 10 mg/kg on day 7; format: functional, Callitrichinae
[10] = Effect on % of cholesterol reduction measured on serum cholesterol level in marmosets after single iv dose 16.7 mg/kg on day 2; format: functional, Callitrichinae
[11] = Effect on % of cholesterol reduction measured on serum cholesterol level in marmosets after single iv dose 50 mg/kg on day 7; format: functional, Callitrichinae
[12] = Effect on % of cholesterol reduction measured on serum cholesterol level in marmosets after single iv dose (3 times a day for 3 days) 16.7 mg/kg on day 7; format: functional, Callitrichinae

For `C=C(CC[C@]12O[C@H](CNC(N)=O)[C@@](O)(C(=O)O)[C@](C(=O)O)(O1)[C@H](O)[C@H]2O)[C@@H](OC(C)=O)[C@H](C)Cc1ccccc1`, which IC50 (Squalene synthase) is on record?
Its IC50 is > 1000 nM.

With `C=C(CC[C@]12O[C@H](COC)[C@@](O)(C(=O)O)[C@](C(=O)O)(O1)[C@H](O)[C@H]2O)[C@@H](OC(C)=O)[C@H](C)Cc1ccccc1` as the compound, how does the IC50 (Squalene synthase) read?
Its IC50 is > 1000 nM.

Which IC50 (Squalene synthase) does the source give for `C=C(CC[C@]12O[C@H](C(C)=O)[C@@](O)(C(=O)O)[C@](C(=O)O)(O1)[C@H](O)[C@H]2O)[C@@H](OC(C)=O)[C@H](C)Cc1ccccc1` here?
Its IC50 is 500 nM.

Which IC50 (Squalene synthase) does the source give for `C=C(CC[C@]12O[C@H](CN)[C@@](O)(C(=O)O)[C@](C(=O)O)(O1)[C@H](O)[C@H]2O)[C@@H](OC(C)=O)[C@H](C)Cc1ccccc1` here?
The IC50 was > 1000 nM.

With `C=C(CC[C@]12O[C@H](CN=C(N)N)[C@@](O)(C(=O)O)[C@](C(=O)O)(O1)[C@H](OC(=O)/C=C/[C@@H](C)C[C@@H](C)CC)[C@H]2O)[C@@H](OC(C)=O)[C@H](C)Cc1ccccc1` as the compound, how does the IC50 (Squalene synthase) read?
The IC50 was 65 nM.

Which IC50 (Squalene synthase) does the source give for `C=C(CC[C@]12O[C@H](CN(C)C)[C@@](O)(C(=O)O)[C@](C(=O)O)(O1)[C@H](OC(=O)/C=C/[C@@H](C)C[C@@H](C)CC)[C@H]2O)[C@@H](OC(C)=O)[C@H](C)Cc1ccccc1` here?
The IC50 was 10 nM.

With `C=C(CC[C@]12O[C@H](CNS(=O)(=O)C(F)(F)F)[C@@](O)(C(=O)O)[C@](C(=O)O)(O1)[C@H](OC(=O)/C=C/[C@@H](C)C[C@@H](C)CC)[C@H]2O)[C@@H](OC(C)=O)[C@H](C)Cc1ccccc1` as the compound, how does the IC50 (Squalene synthase) read?
The IC50 was 60 nM.

Which Reduction [1] does the source give for `C=C(CC[C@]12O[C@H](CO)[C@@](O)(C(=O)O)[C@](C(=O)O)(O1)[C@H](OC(=O)/C=C/[C@@H](C)C[C@@H](C)CC)[C@H]2O)[C@@H](OC(C)=O)[C@H](C)Cc1ccccc1` here?
Its Reduction is 62%.

And the Reduction [2]?
The Reduction was 21%.

What about the Reduction [3] of the same compound?
The Reduction was 5%.

And the Reduction [4]?
The Reduction was 2%.

And the Reduction [5]?
The Reduction was 16%.

What about the Reduction [6] of the same compound?
The Reduction was 31%.

And the Reduction [7]?
The Reduction was 20%.

And the Reduction [8]?
Its Reduction is 30%.

What about the Reduction [9] of the same compound?
The Reduction was 14%.

And the Reduction [10]?
The Reduction was 47%.

And the Reduction [11]?
The Reduction was 28%.

What about the Reduction [12] of the same compound?
The Reduction was 32%.

For `C=C(CC[C@]12O[C@H](CN)[C@@](O)(C(=O)O)[C@](C(=O)O)(O1)[C@H](OC(=O)/C=C/[C@@H](C)C[C@@H](C)CC)[C@H]2O)[C@@H](OC(C)=O)[C@H](C)Cc1ccccc1`, which IC50 (Squalene synthase) is on record?
The IC50 was 4 nM.

With `C=C(CC[C@]12O[C@H](C(C)=O)[C@@](O)(C(=O)O)[C@](C(=O)O)(O1)[C@H](OC(=O)/C=C/[C@@H](C)C[C@@H](C)CC)[C@H]2O)[C@@H](OC(C)=O)[C@H](C)Cc1ccccc1` as the compound, how does the IC50 (Squalene synthase) read?
Its IC50 is 11 nM.

For `C=C(CC[C@]12O[C@H](COC)[C@@](O)(C(=O)O)[C@](C(=O)O)(O1)[C@H](OC(=O)/C=C/[C@@H](C)C[C@@H](C)CC)[C@H]2O)[C@@H](OC(C)=O)[C@H](C)Cc1ccccc1`, which IC50 (Squalene synthase) is on record?
The IC50 was 13 nM.

For `C=C(CC[C@]12O[C@H](CNS(=O)(=O)C(F)(F)F)[C@@](O)(C(=O)O)[C@](C(=O)O)(O1)[C@H](O)[C@H]2O)[C@@H](OC(C)=O)[C@H](C)Cc1ccccc1`, which IC50 (Squalene synthase) is on record?
Its IC50 is 1000 nM.

With `C=C(CC[C@]12O[C@H](CNC(N)=O)[C@@](O)(C(=O)O)[C@](C(=O)O)(O1)[C@H](OC(=O)/C=C/[C@@H](C)C[C@@H](C)CC)[C@H]2O)[C@@H](OC(C)=O)[C@H](C)Cc1ccccc1` as the compound, how does the IC50 (Squalene synthase) read?
Its IC50 is 3 nM.
